This is an account of results in US20060094003A1, “Acetylcholine-dependent current as a novel ionic target for atrial fibrillation” (priority 2004, published 2006).

The target in one assay is T1, Kir2.1 channels (Homo sapiens, UniProt P63252).
T1 sequence (P63252 1-427): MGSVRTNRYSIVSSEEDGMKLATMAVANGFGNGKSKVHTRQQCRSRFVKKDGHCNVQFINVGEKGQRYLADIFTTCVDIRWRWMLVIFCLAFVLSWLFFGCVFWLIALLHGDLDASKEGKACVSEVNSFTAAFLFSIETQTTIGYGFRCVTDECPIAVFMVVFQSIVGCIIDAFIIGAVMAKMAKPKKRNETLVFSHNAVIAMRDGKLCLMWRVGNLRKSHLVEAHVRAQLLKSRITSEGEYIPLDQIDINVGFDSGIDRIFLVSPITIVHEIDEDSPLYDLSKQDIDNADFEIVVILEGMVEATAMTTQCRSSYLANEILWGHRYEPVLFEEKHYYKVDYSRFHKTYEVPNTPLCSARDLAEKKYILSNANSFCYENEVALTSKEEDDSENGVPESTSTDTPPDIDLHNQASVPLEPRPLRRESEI
The settings on record: at micromolar concentrations; Jin & Lu, 1999; cited from earlier work.

The target of a further assay is IKATP (Homo sapiens, UniProt Q14654). The settings on record: at concentrations of 8 to 30 nM; cited from earlier work.
In assay [1] the test system is multicellular canine atrial preparations. Description: Action potential recording with standard microelectrodes in multicellular canine atrial preparations (LA and PV). The note with it: for APD90 / APD25 / APD50: after tertiapin-Q (200 nM per table title); for APD90: atropine present, 2 Hz. The procedure:
Adult mongrel dogs of either sex (weighing about 20-35 kg) were anaesthetized with pentobarbital (30 mg kg^−1 I.V.) and artificially ventilated with room air. Hearts and adjacent lung tissue were relatively quickly excised through a left lateral thoracotomy and immersed in oxygenated Tyrode solution (composition detailed hereinbelow) at room temperature. Removal of the heart and lungs produced circulatory arrest, resulting in relatively effective and relatively humane killing. A left atrial (LA) preparation with the PVs intact was perfused via the left circumflex coronary artery, and subjected to either standard fine-tipped microelectrode recording of action potentials (APs) or cardiomyocyte isolation with collagenase-containing solutions, as previously described (Ehrlich et al. 2003). Six dogs were subjected to atrial tachycardia-induced remodeling induced by 1 week of atrial pacing at about 400 beats min^−1 after ablation of the AV node, as described in Li et al. 1999. Animal care and handling procedures followed the guidelines of the Canadian Council on Animal Care.
To isolate LA and PV cardiomyocytes, the proximal circumflex artery was cannulated and the distal ends of PV myocardial sleeves (approximately 1-1.5 cm from the PV-LA junction) were marked with silk thread prior to subsequent enzyme perfusion with collagenase (100 U ml^−1, Worthington, type II), in order to facilitate localization of PV sleeves after enzymatic digestion. […] With this method, PVs were relatively well-perfused and single cardiomyocytes could be isolated from all veins. Cardiomyocytes obtained from PVs were morphologically similar to LA cardiomyocytes isolated from the LA free wall in the same dogs. All comparisons were based on PV and LA cardiomyocytes isolated from each dog on each experimental day. After isolation, cells were stored at 4° C. and studied on the same day. For standard microelectrode experiments, intact tissue preparations including the LA and adjacent PVs were mounted in a chamber and perfused via the circumflex artery with oxygenated Krebs solution at 36±0.5° C. (see for example Kneller et al. 2002).
Fine-tipped microelectrodes (resistance 15-20 M when filled with 3 M KCl) coupled to a high input-impedance amplifier were used to record APs as described in Kneller et al. 2002.
Tyrode solution contained (mM): NaCl 136, KCl 5.4, MgCl2 1, CaCl2 1, NaH2PO4 0.33, Hepes 5 and dextrose 10 (pH 7.35 with NaOH). The cell-storage solution contained (mM): KCl 20, KH2PO4 10, dextrose 10, mannitol 40, L-glutamic acid 70, β-OH-butyric acid 10, taurine 20, EGTA 10 and 0.1% bovine serum albumin (pH 7.3, KOH). Nifedipine (5 μM) was used to suppress L-type Ca^2+ current (ICa) in all experiments. 4-Aminopyridine (4-AP, 2 mM) was added to suppress transient outward current (Ito). […] Na+ current (INa) contamination was avoided by using a HP of −40 mV for recording of hyperpolarization-induced currents and by substitution of equimolar Tris-HCl for external NaCl for tail-current recordings. When different external K^+ concentrations were applied, the osmolarity was kept constant by proportionate reduction of NaCl content in the solution. The standard internal solution contained (mM): potassium aspartate 110, KCl 20, MgCl2 1, MgATP 5, GTP (lithium salt) 0.1, Hepes 10, sodium phosphocreatine 5 and EGTA 5.0 (pH 7.3 with KOH). In experiments with K+-free internal solution, potassium aspartate was replaced by equimolar caesium aspartate and KCl by CsCl and pH was set to 7.3 with CsOH. For standard-microelectrode experiments, a solution containing (mM): NaCl 120, KCl 4, KH2PO4 1.2, MgSO4 1.2, NaHCO3 25, CaCl2 1.25 and dextrose 5 (95% O2-5% CO2, pH 7.4) was used to perfuse the tissue.
FIGS. 5E and F show representative APs before and after 100 nM tertiapin-Q in LA and PV.

Another assay deals with IK1. The note with it: at concentrations of 8 to 30 nM; cited from earlier work.

Sequence of IKATP (Q14654 whole entry, species assumed): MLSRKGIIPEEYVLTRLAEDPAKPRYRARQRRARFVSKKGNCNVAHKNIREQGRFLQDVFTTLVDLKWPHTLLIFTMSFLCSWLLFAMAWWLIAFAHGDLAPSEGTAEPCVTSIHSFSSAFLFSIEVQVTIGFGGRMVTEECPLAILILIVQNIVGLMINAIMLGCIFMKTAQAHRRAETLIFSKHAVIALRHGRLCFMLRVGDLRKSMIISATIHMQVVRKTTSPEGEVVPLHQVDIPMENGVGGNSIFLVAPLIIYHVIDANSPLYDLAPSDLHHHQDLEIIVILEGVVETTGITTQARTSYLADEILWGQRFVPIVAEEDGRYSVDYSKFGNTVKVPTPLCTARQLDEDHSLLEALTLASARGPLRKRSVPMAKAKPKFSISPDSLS
Sequence of IKATP (O60706 whole entry partner, species assumed): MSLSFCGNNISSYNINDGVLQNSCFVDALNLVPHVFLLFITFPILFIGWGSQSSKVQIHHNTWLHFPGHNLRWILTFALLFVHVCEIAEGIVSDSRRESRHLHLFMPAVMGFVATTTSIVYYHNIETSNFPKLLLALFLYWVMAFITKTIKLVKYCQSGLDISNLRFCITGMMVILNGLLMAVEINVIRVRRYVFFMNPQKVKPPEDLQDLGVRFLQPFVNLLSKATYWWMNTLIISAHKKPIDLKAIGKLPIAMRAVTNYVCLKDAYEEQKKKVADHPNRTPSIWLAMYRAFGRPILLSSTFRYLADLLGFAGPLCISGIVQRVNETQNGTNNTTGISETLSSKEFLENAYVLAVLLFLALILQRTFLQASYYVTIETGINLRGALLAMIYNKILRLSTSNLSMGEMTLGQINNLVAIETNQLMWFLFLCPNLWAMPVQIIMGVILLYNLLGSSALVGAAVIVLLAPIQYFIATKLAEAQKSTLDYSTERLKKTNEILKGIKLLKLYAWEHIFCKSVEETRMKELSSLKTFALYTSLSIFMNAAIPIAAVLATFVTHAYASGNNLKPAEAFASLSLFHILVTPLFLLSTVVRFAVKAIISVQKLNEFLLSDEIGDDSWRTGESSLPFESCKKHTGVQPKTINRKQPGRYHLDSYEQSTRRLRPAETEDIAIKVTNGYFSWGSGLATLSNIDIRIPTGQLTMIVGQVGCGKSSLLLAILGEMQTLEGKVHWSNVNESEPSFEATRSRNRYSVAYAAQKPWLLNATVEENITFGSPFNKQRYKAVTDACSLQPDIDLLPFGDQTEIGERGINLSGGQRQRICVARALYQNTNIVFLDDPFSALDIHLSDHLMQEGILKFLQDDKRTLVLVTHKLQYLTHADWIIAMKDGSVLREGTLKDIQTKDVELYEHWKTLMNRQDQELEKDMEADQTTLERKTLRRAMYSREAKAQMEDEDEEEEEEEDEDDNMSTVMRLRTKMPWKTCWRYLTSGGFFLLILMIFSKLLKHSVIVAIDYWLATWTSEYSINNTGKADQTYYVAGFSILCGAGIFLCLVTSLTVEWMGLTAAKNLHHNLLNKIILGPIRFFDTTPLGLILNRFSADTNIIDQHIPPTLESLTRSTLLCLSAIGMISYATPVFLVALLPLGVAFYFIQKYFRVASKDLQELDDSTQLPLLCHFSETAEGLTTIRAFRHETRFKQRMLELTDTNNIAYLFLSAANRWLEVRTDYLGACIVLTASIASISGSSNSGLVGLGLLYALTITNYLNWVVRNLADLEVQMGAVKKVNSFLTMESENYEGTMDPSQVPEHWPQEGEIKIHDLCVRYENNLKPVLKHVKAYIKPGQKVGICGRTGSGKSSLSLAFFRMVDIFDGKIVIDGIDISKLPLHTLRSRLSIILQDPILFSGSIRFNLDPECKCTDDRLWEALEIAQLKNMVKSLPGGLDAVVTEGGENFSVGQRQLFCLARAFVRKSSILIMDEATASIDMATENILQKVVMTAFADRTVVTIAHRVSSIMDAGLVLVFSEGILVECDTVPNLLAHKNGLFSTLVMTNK

As to tertiapin-Q, the “effect on Kir2.1 channels (in words)” value on Kir2.1 channels is reported as “minimal effects”. For the same substance, on IKATP, the “effect on IKATP (in words)” value is recorded as “no effect”. In addition, in assay [1] (100 nM tertiapin-Q, 200 nM atropine), the “effect on AP duration in LA and PV (in words)” value was “significantly prolonged”. The APD90 in assay [1] (LA, control 202.6 ± 2.6) came out at 242.7 ± 6.2 ms; in assay [1] (PV, control 190.4 ± 4.3), 234.2 ± 9.9 ms. The APD25 in assay [1] (LA, control 78.1 ± 2.8) came to 84.7 ± 4.0 ms; in assay [1] (PV, control 71.3 ± 3.4), 86.1 ± 5.0 ms. The APD50 was found to be 146.8 ± 3.2 ms in assay [1] (LA, control 130.2 ± 4.0) and 126.8 ± 6.9 ms in assay [1] (PV, control 104.0 ± 3.8). The “effect on IK1 (in words)” value in the assay on IK1 is “no effect”.
